This passage reports EC50 results from ChEMBL document CHEMBL3822455, “Aryl or heteroaryl substituted aminal derivatives of HCV NS5A inhibitor MK-8742” (Bioorg Med Chem Lett, 2016).

Structures are written as SMILES.

Common to all, as to type: functional, organism-based, Hepacivirus hominis
Assay [1] relates to Hepatitis C virus. Kind of assay: Antiviral activity against HCV genotype 2b assessed as replicon RNA level measured after 3 days by real-time PCR method. As to conditions: 72 h. A general note: A replicon is a self-replicating genome or part of one, used to study replication in cells.
Assay [2] deals with Hepatitis C virus. Briefly: Antiviral activity against HCV genotype 3a assessed as replicon RNA level measured after 3 days by real-time PCR method. The note with it: 72 h.
In assay [3] the test system is Hepatitis C virus. Kind of assay: Antiviral activity against HCV genotype 1a harboring NS5A L31V mutant assessed as replicon RNA level measured after 3 days by real-time PCR method. The note with it: subtype 1a, 72 h.
Assay [4] relates to Hepatitis C virus. Briefly: Antiviral activity against HCV genotype 1a assessed as replicon RNA level measured after 3 days by real-time PCR method. The note with it: subtype 1a, 72 h.
Assay [5] concerns Hepatitis C virus. Kind of assay: Antiviral activity against HCV genotype 2a assessed as replicon RNA level measured after 3 days by real-time PCR method. The note with it: 72 h.
The test system of assay [6] is Hepatitis C virus. Kind of assay: Antiviral activity against HCV genotype 4a assessed as replicon RNA level measured after 3 days by real-time PCR method. As to conditions: 72 h.
In assay [7] the test system is Hepatitis C virus. Kind of assay: Antiviral activity against HCV genotype 1b assessed as replicon RNA level measured after 3 days by real-time PCR method. As to conditions: 72 h.
Assay [8] deals with Hepatitis C virus. Kind of assay: Antiviral activity against HCV genotype 1a harboring NS5A Y93H mutant assessed as replicon RNA level measured after 3 days by real-time PCR method. The note with it: subtype 1a, 72 h.

As to `COC(=O)N[C@H](C(=O)N1CCC[C@H]1c1ncc(-c2ccc3c(c2)OC(c2ccccc2)n2c-3cc3cc(-c4cnc([C@@H]5CCCN5C(=O)[C@@H](NC(=O)OC)C(C)C)[nH]4)ccc32)[nH]1)C(C)C` (some centres undefined), the concentration giving a half-maximal response (EC50) (in general, the concentration that produces a half-maximal response) with Hepatitis C virus [1] amounted to 3 nM; in the assay on Hepatitis C virus [2], 0.02 nM; in the assay with Hepatitis C virus [3], 0.5 nM; in the assay with Hepatitis C virus [4], 0.004 nM; in the assay on Hepatitis C virus [5] it was 0.003 nM; in the assay on Hepatitis C virus [6] it was 0.003 nM. The values for the half-maximal effective concentration (EC50) in the assay with Hepatitis C virus [7] and in the assay on Hepatitis C virus [8] were 0.003 nM and 2 nM, respectively.
As for `COC(=O)N[C@H](C(=O)N1CCC[C@H]1c1ncc(-c2ccc3c(c2)OC(c2cccc(-c4ccccc4)c2)n2c-3cc3cc(-c4cnc([C@@H]5CCCN5C(=O)[C@@H](NC(=O)OC)C(C)C)[nH]4)ccc32)[nH]1)C(C)C` (some centres undefined), the EC50 with Hepatitis C virus [1] came to 1 nM; with Hepatitis C virus [2] it was 0.07 nM; with Hepatitis C virus [3], 0.3 nM; in the assay on Hepatitis C virus [4], 0.003 nM; in the assay on Hepatitis C virus [5], 0.003 nM; in the assay with Hepatitis C virus [6] it was 0.005 nM. Besides, the EC50 was determined as 0.004 nM with Hepatitis C virus [7] and 8 nM with Hepatitis C virus [8].
As for `COC(=O)N[C@H](C(=O)N1CCC[C@H]1c1ncc(-c2ccc3c(c2)OC(c2cccc(C4CC4)c2)n2c-3cc3cc(-c4cnc([C@@H]5CCCN5C(=O)[C@@H](NC(=O)OC)C(C)C)[nH]4)ccc32)[nH]1)C(C)C` (mixture of isomers), the EC50 was 7 nM in the assay with Hepatitis C virus [1]; 0.3 nM in the assay with Hepatitis C virus [2]; 0.6 nM in the assay with Hepatitis C virus [3]; 0.004 nM in the assay with Hepatitis C virus [4]; 0.01 nM in the assay on Hepatitis C virus [5]; 0.002 nM with Hepatitis C virus [6]. Further, the EC50 in the assay with Hepatitis C virus [7] turned out to be 0.002 nM; in the assay on Hepatitis C virus [8], 12 nM.
On to `CNC(=O)c1cccc(C2Oc3cc(-c4cnc([C@@H]5CCCN5C(=O)[C@@H](NC(=O)OC)C(C)C)[nH]4)ccc3-c3cc4cc(-c5cnc([C@@H]6CCCN6C(=O)[C@@H](NC(=O)OC)C(C)C)[nH]5)ccc4n32)c1` (mixture of isomers), for which the EC50 was 24 nM in the assay on Hepatitis C virus [1]; 0.9 nM in the assay on Hepatitis C virus [2]; under 10 nM in the assay on Hepatitis C virus [3]; 0.06 nM in the assay on Hepatitis C virus [4]; 0.09 nM in the assay with Hepatitis C virus [5]; 0.18 nM with Hepatitis C virus [6]. The concentration giving a half-maximal response (EC50) with Hepatitis C virus [7] is 0.01 nM; with Hepatitis C virus [8], 145 nM.
With `COC(=O)N[C@H](C(=O)N1CCC[C@H]1c1ncc(-c2ccc3c(c2)OC(c2cccc(-c4noc(C)n4)c2)n2c-3cc3cc(-c4cnc([C@@H]5CCCN5C(=O)[C@@H](NC(=O)OC)C(C)C)[nH]4)ccc32)[nH]1)C(C)C` (mixture of isomers), the EC50 came out at 2 nM in the assay with Hepatitis C virus [1]; 0.07 nM in the assay on Hepatitis C virus [2]; 0.2 nM with Hepatitis C virus [3]; 0.003 nM with Hepatitis C virus [4]; 0.002 nM in the assay with Hepatitis C virus [5]; 0.01 nM in the assay with Hepatitis C virus [6]. Moreover, the results for the EC50 in the assay on Hepatitis C virus [7] and in the assay on Hepatitis C virus [8] were 0.004 nM and 0.9 nM, respectively.
For `COC(=O)N[C@H](C(=O)N1CCC[C@H]1c1ncc(-c2ccc3c(c2)OC(c2cccc(N4CCOCC4)c2)n2c-3cc3cc(-c4cnc([C@@H]5CCCN5C(=O)[C@@H](NC(=O)OC)C(C)C)[nH]4)ccc32)[nH]1)C(C)C` (mixture of isomers), the EC50 in the assay with Hepatitis C virus [1] came to 17 nM; in the assay on Hepatitis C virus [2], 0.12 nM; in the assay on Hepatitis C virus [3] it was 0.3 nM; in the assay with Hepatitis C virus [4] it was 0.004 nM; with Hepatitis C virus [5], 0.002 nM; with Hepatitis C virus [6], 0.007 nM. In addition, the half-maximal effective concentration (EC50) amounted to 0.006 nM with Hepatitis C virus [7] and 52 nM in the assay with Hepatitis C virus [8].
With `CCc1cccc(C2Oc3cc(-c4cnc([C@@H]5CCCN5C(=O)[C@@H](NC(=O)OC)C(C)C)[nH]4)ccc3-c3cc4cc(-c5cnc([C@@H]6CCCN6C(=O)[C@@H](NC(=O)OC)C(C)C)[nH]5)ccc4n32)c1` (mixture of isomers), the EC50 turned out to be 3 nM in the assay with Hepatitis C virus [1]; 0.2 nM in the assay with Hepatitis C virus [2]; 0.51 nM in the assay on Hepatitis C virus [3]; 0.002 nM with Hepatitis C virus [4]; 0.02 nM with Hepatitis C virus [5]; 0.001 nM in the assay with Hepatitis C virus [6]. Further, the half-maximal effective concentration (EC50) in the assay with Hepatitis C virus [7] was determined as 0.002 nM; in the assay with Hepatitis C virus [8], 10 nM.
On to `COC(=O)N[C@H](C(=O)N1CCC[C@H]1c1ncc(-c2ccc3c(c2)OC(c2cccc(C(=O)N(C)C)c2)n2c-3cc3cc(-c4cnc([C@@H]5CCCN5C(=O)[C@@H](NC(=O)OC)C(C)C)[nH]4)ccc32)[nH]1)C(C)C` (mixture of isomers), for which the EC50 was 41 nM with Hepatitis C virus [1]; over 1 nM in the assay on Hepatitis C virus [2]; 0.4 nM in the assay with Hepatitis C virus [3]; 0.02 nM with Hepatitis C virus [4]; 0.04 nM in the assay on Hepatitis C virus [5]; 0.18 nM in the assay with Hepatitis C virus [6]. Further, the figures for the EC50 in the assay on Hepatitis C virus [7] and in the assay on Hepatitis C virus [8] were 0.01 nM and over 100 nM, respectively.
`COC(=O)N[C@H](C(=O)N1CCC[C@H]1c1ncc(-c2ccc3c(c2)OC(c2cccc(-c4ccc(-c5ccccc5)cc4)c2)n2c-3cc3cc(-c4cnc([C@@H]5CCCN5C(=O)[C@@H](NC(=O)OC)C(C)C)[nH]4)ccc32)[nH]1)C(C)C` (mixture of isomers): the concentration for a half-maximal effect (EC50) is 3 nM in the assay on Hepatitis C virus [1]; 0.01 nM in the assay with Hepatitis C virus [2]; 0.3 nM in the assay with Hepatitis C virus [3]; 0.006 nM in the assay on Hepatitis C virus [4]; 0.003 nM in the assay with Hepatitis C virus [5]; 0.005 nM with Hepatitis C virus [6]. The EC50 with Hepatitis C virus [7] is 0.003 nM; in the assay with Hepatitis C virus [8], 2 nM.
In the case of `COC(=O)N[C@H](C(=O)N1CCC[C@H]1c1ncc(-c2ccc3c(c2)OC(c2cccc(-c4ncon4)c2)n2c-3cc3cc(-c4cnc([C@@H]5CCCN5C(=O)[C@@H](NC(=O)OC)C(C)C)[nH]4)ccc32)[nH]1)C(C)C` (mixture of isomers), the EC50 turned out to be 4 nM in the assay with Hepatitis C virus [1]; 0.4 nM with Hepatitis C virus [2]; 0.2 nM in the assay with Hepatitis C virus [3]; 0.009 nM with Hepatitis C virus [4]; 0.007 nM with Hepatitis C virus [5]; 0.02 nM with Hepatitis C virus [6]. The EC50 with Hepatitis C virus [7] was determined as 0.006 nM; in the assay on Hepatitis C virus [8], 6 nM.
In the case of `COC(=O)N[C@H](C(=O)N1CCC[C@H]1c1ncc(-c2ccc3c(c2)OC(c2ccc(C4CC4)cc2)n2c-3cc3cc(-c4cnc([C@@H]5CCCN5C(=O)[C@@H](NC(=O)OC)C(C)C)[nH]4)ccc32)[nH]1)C(C)C` (mixture of isomers), the EC50 in the assay with Hepatitis C virus [1] was 0.5 nM; with Hepatitis C virus [2], 0.03 nM; in the assay with Hepatitis C virus [3], 0.04 nM; with Hepatitis C virus [4], 0.003 nM; in the assay on Hepatitis C virus [5], under 0.2 nM; in the assay on Hepatitis C virus [6], under 0.2 nM. Also, the EC50 with Hepatitis C virus [7] was under 0.02 nM; in the assay on Hepatitis C virus [8], 0.5 nM.
For the compound `COC(=O)N[C@H](C(=O)N1CCC[C@H]1c1ncc(-c2ccc3c(c2)OC(c2cccc(-c4ccc(N)nc4)c2)n2c-3cc3cc(-c4cnc([C@@H]5CCCN5C(=O)[C@@H](NC(=O)OC)C(C)C)[nH]4)ccc32)[nH]1)C(C)C` (mixture of isomers), the EC50 in the assay with Hepatitis C virus [1] stood at 2 nM; in the assay with Hepatitis C virus [2], 0.2 nM; in the assay with Hepatitis C virus [3], 0.2 nM; in the assay with Hepatitis C virus [4], 0.004 nM; in the assay on Hepatitis C virus [5], 0.005 nM; with Hepatitis C virus [6], 0.002 nM. Besides, the EC50 with Hepatitis C virus [7] came out at 0.006 nM; in the assay with Hepatitis C virus [8], 10 nM.
As for `COC(=O)N[C@H](C(=O)N1CCC[C@H]1c1ncc(-c2ccc3c(c2)OC(c2cccc(-c4cccnc4)c2)n2c-3cc3cc(-c4cnc([C@@H]5CCCN5C(=O)[C@@H](NC(=O)OC)C(C)C)[nH]4)ccc32)[nH]1)C(C)C` (mixture of isomers), the EC50 was found to be 8 nM with Hepatitis C virus [1]; 0.08 nM with Hepatitis C virus [2]; 0.2 nM in the assay with Hepatitis C virus [3]; 0.006 nM in the assay on Hepatitis C virus [4]; 0.004 nM in the assay with Hepatitis C virus [5]; 0.003 nM in the assay on Hepatitis C virus [6]. The concentration giving a half-maximal response (EC50) in the assay with Hepatitis C virus [7] turned out to be 0.008 nM; in the assay with Hepatitis C virus [8] it was 26 nM.
